The results in this text go back to US9221832B2, “Heterocyclic amide derivatives as P2X7 receptor antagonists” (ACTELION PHARMACEUTICALS LTD., priority 2011, dated 2015).

For this experiment, the target named is human recombinant P2X7 receptor (Homo sapiens (Human), UniProt Q99572). The experiment is described as follows: YO-PRO assay: P2X7 receptor antagonistic activity. The experiment is classed as cell-based. Conditions: HEK cells expressing human P2X7.
Sequence of human recombinant P2X7 receptor (Q99572 whole entry): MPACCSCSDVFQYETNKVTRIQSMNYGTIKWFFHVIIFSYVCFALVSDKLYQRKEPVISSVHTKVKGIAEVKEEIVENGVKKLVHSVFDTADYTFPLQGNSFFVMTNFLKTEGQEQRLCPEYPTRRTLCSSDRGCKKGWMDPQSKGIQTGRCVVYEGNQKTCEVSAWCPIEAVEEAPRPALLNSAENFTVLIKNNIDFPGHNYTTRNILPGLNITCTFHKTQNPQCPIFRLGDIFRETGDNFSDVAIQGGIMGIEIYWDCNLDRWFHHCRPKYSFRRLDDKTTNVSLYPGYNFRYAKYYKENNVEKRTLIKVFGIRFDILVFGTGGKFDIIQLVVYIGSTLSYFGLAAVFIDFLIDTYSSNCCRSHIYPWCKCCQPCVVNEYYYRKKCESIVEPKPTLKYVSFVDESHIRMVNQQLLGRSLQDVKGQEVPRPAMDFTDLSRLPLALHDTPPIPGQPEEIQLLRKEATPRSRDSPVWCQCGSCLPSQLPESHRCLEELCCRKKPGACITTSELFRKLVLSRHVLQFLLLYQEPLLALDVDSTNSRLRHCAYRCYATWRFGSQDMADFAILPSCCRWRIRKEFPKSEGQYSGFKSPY
In the case of `Cc1cc(Cl)cc(Cl)c1CC(=O)NC1CCOc2ncccc21` (single isomer, unassigned) [Example 28, 2-(2,4-Dichloro-6-methyl-phenyl)-N-(3,4-dihydro-2H-pyrano[2,3-b]pyridin-4-yl)-acetamide], the IC50 worked out at 29 nM.
For the molecule `Cc1cc(Cl)cc(Cl)c1CC(=O)NC1CCOc2ncccc21` (single isomer, unassigned) [Example 29, 2-(2,4-Dichloro-6-methyl-phenyl)-N-(3,4-dihydro-2H-pyrano[2,3-b]pyridin-4-yl)-acetamide], the IC50 stood at 172 nM.
Consider `O=C(Cc1cccc(C(F)(F)F)c1Cl)NC1COc2ncccc21` (single isomer, unassigned) [Example 73, 2-(2-Chloro-3-trifluoromethyl-phenyl)-N-(2,3-dihydro-furo[2,3-b]pyridin-3-yl)-acetamide], for which the IC50 came to 9.9 nM.
For `O=C(Cc1cccc(C(F)(F)F)c1Cl)NC1COc2ncccc21` (single isomer, unassigned) [Example 74, 2-(2-Chloro-3-trifluoromethyl-phenyl)-N-(2,3-dihydro-furo[2,3-b]pyridin-3-yl)-acetamide], the IC50 was 4.7 nM.
`CC(C(=O)NC1COc2ncccc21)c1ccc(Cl)cc1Cl` (single isomer, unassigned) [Example 92, 2-(2,4-Dichloro-phenyl)-N-2,3-dihydro-furo[2,3-b]pyridin-3-yl-propionamide]: the IC50 is 9 nM.
Regarding `CC(C(=O)NC1COc2ncccc21)c1ccc(Cl)cc1Cl` (single isomer, unassigned) [Example 93, 2-(2,4-Dichloro-phenyl)-N-2,3-dihydro-furo[2,3-b]pyridin-3-yl-propionamide], the IC50 is 137 nM.
With `CC(C(=O)NC1COc2ncccc21)c1ccc(Cl)cc1Cl` (single isomer, unassigned) [Example 94, 2-(2,4-Dichloro-phenyl)-N-2,3-dihydro-furo[2,3-b]pyridin-3-yl-propionamide], the IC50 came out at 11 nM.
Turning to `CC(C(=O)NC1COc2ncccc21)c1ccc(Cl)cc1Cl` (single isomer, unassigned) [Example 95, 2-(2,4-Dichloro-phenyl)-N-2,3-dihydro-furo[2,3-b]pyridin-3-yl-propionamide], the IC50 is 104 nM.
Turning to `N#Cc1cccc(CC(=O)NC2COc3ncccc32)c1Cl` (single isomer, unassigned) [Example 98, 2-(2-Chloro-3-cyano-phenyl)-N-2,3-dihydro-furo[2,3-b]pyridin-3-yl-acetamide], the IC50 is 29 nM.
Under `N#Cc1cccc(CC(=O)NC2COc3ncccc32)c1Cl` (single isomer, unassigned) [Example 99, 2-(2-Chloro-3-cyano-phenyl)-N-2,3-dihydro-furo[2,3-b]pyridin-3-yl-acetamide] stands 40 nM.
Regarding `Cc1cc(Cl)cc(Cl)c1CC(=O)NC1COc2cnccc21` (single isomer, unassigned) [Example 101, 2-(2,4-Dichloro-6-methyl-phenyl)-N-2,3-dihydro-furo[2,3-c]pyridin-3-yl-acetamide], the IC50 came out at 598 nM.
As for `Cc1cc(Cl)cc(Cl)c1CC(=O)NC1COc2cnccc21` (single isomer, unassigned) [Example 102, 2-(2,4-Dichloro-6-methyl-phenyl)-N-2,3-dihydro-furo[2,3-c]pyridin-3-yl-acetamide], the IC50 was found to be 2.2 nM.
Turning to `O=C(NC1COc2ncccc21)C1CCc2cc(Cl)cc(Cl)c21` (single isomer, unassigned) [Example 146, 5,7-dichloro-N-(2,3-dihydrofuro[2,3-b]pyridin-3-yl)-2,3-dihydro-1H-indene-1-carboxamide], the IC50 was 160 nM.
Take `O=C(NC1COc2ncccc21)C1CCc2cc(Cl)cc(Cl)c21` (single isomer, unassigned) [Example 147, 5,7-dichloro-N-(2,3-dihydrofuro[2,3-b]pyridin-3-yl)-2,3-dihydro-1H-indene-1-carboxamide]: the IC50 worked out at 40 nM.
With `CC(C(=O)NC1COc2ncccc21)c1ccc(Cl)cc1` (centres unmarked) [Example 23, 2-(4-Chloro-phenyl)-N-(2,3-dihydro-furo[2,3-b]pyridin-3-yl)-propionamide], the IC50 was determined as 828 nM.
Take `CC(C(=O)NC1CCOc2ncccc21)c1ccc(Cl)cc1` (centres unmarked) [Example 64, 2-(4-Chloro-phenyl)-N-(3,4-dihydro-2H-pyrano[2,3-b]pyridin-4-yl)-propionamide]: the IC50 was found to be 1520 nM.
As for `O=C(NC1COc2ncccc21)C(CO)c1ccc(Cl)cc1Cl` (centres unmarked) [Example 79, 2-(2,4-Dichloro-phenyl)-N-2,3-dihydro-furo[2,3-b]pyridin-3-yl-3-hydroxy-propionamide], the IC50 is 21 nM.
Consider `O=C(NC1COc2ncccc21)C(CN1CCCC1)c1ccc(Cl)cc1Cl` (centres unmarked) [Example 81, 2-(2,4-Dichloro-phenyl)-N-2,3-dihydro-furo[2,3-b]pyridin-3-yl-3-pyrrolidin-1-yl-propionamide], for which the 50% inhibitory concentration (IC50) worked out at 1970 nM.
In the case of `CCC(C(=O)NC1COc2ncccc21)c1ccc(Cl)cc1Cl` (centres unmarked) [Example 84, 2-(2,4-Dichloro-phenyl)-N-2,3-dihydro-furo[2,3-b]pyridin-3-yl-butyramide], the IC50 is 55 nM.
Then `CC(C(=O)NC1COc2ncccc21)c1ccc(Cl)cc1Cl` (centres unmarked) [Example 85, 2-(2,4-Dichloro-phenyl)-N-2,3-dihydro-furo[2,3-b]pyridin-3-yl-propionamide], with 15 nM; and `[2H]C([2H])([2H])C(C(=O)NC1COc2ncccc21)c1ccc(Cl)cc1Cl` (centres unmarked) [Example 86, 2-(2,4-Dichloro-phenyl)-2-trideuteromethyl-N-2,3-dihydro-furo[2,3-b]pyridin-3-yl-acetamide], with 33 nM; and `O=C(NC1COc2ncccc21)C1CCc2cc(Cl)cc(Cl)c21` (centres unmarked) [Example 130, 5,7-dichloro-N-(2,3-dihydrofuro[2,3-b]pyridin-3-yl)-2,3-dihydro-1H-indene-1-carboxamide], with 137 nM.
With `O=C(NC1COc2ncccc21)C1Cc2ccc(Cl)cc2C1` (centres unmarked) [Example 149, 5-chloro-N-(2,3-dihydrofuro[2,3-b]pyridin-3-yl)-2,3-dihydro-1H-indene-2-carboxamide], the IC50 was 4690 nM.

The term IC50 denotes the concentration needed to halve the response being measured.
